From ChEMBL document CHEMBL5241115, “Postmodification of voxelotor (GBT 440) via [Rh]-catalyzed cross dehydrogenative coupling with olefins” (2022)

Experiment: Induction of oxygen binding efficiency of haemoglobin from human sickled red blood cells at 100 uM measured every 10 mins for 180 mins by spectral scan analysis relative to control
Assay type: functional, Erythrocyte
Details: 3 h

Structure (SMILES) | Activity [%]
COc1ccc(/C=C/c2cnn(C(C)C)c2-c2ncccc2COc2cccc(O)c2C=O)cc1 | 78.6
Cc1ccc(/C=C/c2cnn(C(C)C)c2-c2ncccc2COc2cccc(O)c2C=O)cc1 | 78.9
CC(C)n1nccc1-c1ncccc1COc1cccc(O)c1C=O [VOXELOTOR] | 100
CCCCC(=O)/C=C/c1cnn(C(C)C)c1-c1ncccc1COc1cccc(O)c1C=O | 82
COc1ccc(/C=C/c2cnn(C(C)C)c2-c2ncccc2COc2cccc(O)c2C=O)c(OC)c1 | 81.1
